± gives the expanded uncertainty stated by the source. One block for each compound: values may come before it.
Experiment: mn = molality of the nth substance listed, in mol/kg
Details: 298.15 K, Ring tensiometer

surface tension liquid-gas (m1 = 0.001): 70.8 ± 0.9 mN/m
surface tension liquid-gas (m1 = 0.0021): 70.1 ± 0.9 mN/m
surface tension liquid-gas (m1 = 0.0031): 68.9 ± 0.9 mN/m
surface tension liquid-gas (m1 = 0.0053): 65.2 ± 1.1 mN/m
Compound: COC(=O)c1ccccc1O [methyl 2-hydroxybenzoate] + O

surface tension liquid-gas (m2 = 0): 71 ± 0.9 mN/m
Compound: O [water] + COC(=O)c1ccccc1O

surface tension liquid-gas (m2 = 0): 71.5 ± 0.9 mN/m
Compound: O [water] + CC/C=C\CCO

surface tension liquid-gas (m2 = 0): 70.8 ± 1 mN/m
Compound: O [water] + C=CC(C)(C)O

surface tension liquid-gas (m1 = 0.0006): 66.8 ± 0.9 mN/m
surface tension liquid-gas (m1 = 0.0015): 62.3 ± 0.8 mN/m
surface tension liquid-gas (m1 = 0.0019): 58.7 ± 1.1 mN/m
Compound: CC/C=C\CCOC(C)=O [(Z)-3-hexenyl acetate] + O

surface tension liquid-gas (m2 = 0): 70.2 ± 1 mN/m
Compound: O [water] + CC/C=C\CCOC(C)=O

surface tension liquid-gas (m1 = 0.001): 69.5 ± 0.9 mN/m
surface tension liquid-gas (m1 = 0.003): 65.2 ± 1.4 mN/m
surface tension liquid-gas (m1 = 0.005): 63.5 ± 0.8 mN/m
surface tension liquid-gas (m1 = 0.006): 61.5 ± 0.8 mN/m
Compound: CC/C=C\CCO [(Z)-3-hexen-1-ol] + O

surface tension liquid-gas (m1 = 0.001): 70.6 ± 0.9 mN/m
surface tension liquid-gas (m1 = 0.003): 69.7 ± 0.9 mN/m
surface tension liquid-gas (m1 = 0.0052): 69.5 ± 0.9 mN/m
surface tension liquid-gas (m1 = 0.0088): 67.7 ± 0.9 mN/m
Compound: C=CC(C)(C)O [2-methyl-3-buten-2-ol] + O

From the NIST ThermoML archive (doi:10.1021/je500114m)
